Measured values as given in ChEMBL document CHEMBL1156829 (Proc Natl Acad Sci U S A, 2008).

Experiments:
Plasmodium falciparum [1] = assay: NOVARTIS: Inhibition of Plasmodium falciparum 3D7 (drug-susceptible) proliferation in erythrocyte-based infection assay; format: functional, organism-based; conditions: Plasmodium falciparum, 3D7
Plasmodium falciparum [2] = assay: NOVARTIS: Inhibition of Plasmodium falciparum W2 (drug-resistant) proliferation in erythrocyte-based infection assay; format: functional, organism-based; conditions: Plasmodium falciparum, W2; read-out: EC50
[3] = NOVARTIS: Cytotoxicity against human hepatocellular carcinoma cell line (Huh7); format: toxicity, cell-based, Huh-7; conditions: Huh7 cells (hepatocellular carcinoma cell line)

With `Nc1nc(N)c2c(Oc3ccccc3)cccc2n1` the EC50 (Plasmodium falciparum [1]) was 448 nM, the EC50 (Plasmodium falciparum [2]) was 26.7 nM and the CC50 [3] was > 10000 nM.

With `C(#Cc1ccccc1)C[N+]1(CC#Cc2ccc(C#CC[N+]3(CC#Cc4ccccc4)CCCCC3)cc2)CCCCC1` the EC50 (Plasmodium falciparum [1]) was 493 nM, the EC50 (Plasmodium falciparum [2]) was 252 nM and the CC50 [3] was > 100000 nM.

With `CCN(CC)S(=O)(=O)c1ccc(C(=O)NCc2nnc(SCC(=O)N3CCc4ccccc43)n2-c2ccccc2OC)cc1` the EC50 (Plasmodium falciparum [1]) was > 1250 nM, the EC50 (Plasmodium falciparum [2]) was 26.7 nM and the CC50 [3] was > 10000 nM.

For `OCC(O)COc1cccc2ccccc12` (stereo not given), the EC50 (Plasmodium falciparum [1]) was > 1050 nM, the EC50 (Plasmodium falciparum [2]) was < 29.7 nM and the CC50 [3] was > 11200 nM.

`CC(C)c1ccc(NC(=O)C=Cc2ccccc2Cl)cc1` showed an EC50 (Plasmodium falciparum [1]) of 102 nM, an EC50 (Plasmodium falciparum [2]) of 45.6 nM and a CC50 [3] of 17500 nM.

For `CN(C)c1cc[n+](CC(=O)c2ccc(Br)cc2)cc1`, the EC50 (Plasmodium falciparum [1]) was 211 nM, the EC50 (Plasmodium falciparum [2]) was 183 nM and the CC50 [3] was 75600 nM.

With `O=C(Nc1ccc(NC2=NCCN2)cc1)c1ccc(C(=O)Nc2ccc(NC3=NCCN3)cc2)cc1` the EC50 (Plasmodium falciparum [1]) was 166 nM, the EC50 (Plasmodium falciparum [2]) was 25.6 nM and the CC50 [3] was > 10000 nM.

For `O=C1CSC(=Nc2ccc(F)c(Cl)c2)N1c1ccc(F)c(Cl)c1`, the EC50 (Plasmodium falciparum [1]) was > 1250 nM, the EC50 (Plasmodium falciparum [2]) was 26.7 nM and the CC50 [3] was > 10000 nM.

In the case of `O=C(CN1CCC(NC(=O)c2cccc(F)c2)CC1)NC1CC1`, the EC50 (Plasmodium falciparum [1]) is reported as > 1250 nM, the EC50 (Plasmodium falciparum [2]) is reported as 26.7 nM and the CC50 [3] is reported as > 10000 nM.

With `CO[C@H]1C[C@H](C)Cc2cc(O)cc(c2)NC(=O)C(C)=CCC[C@H](OC)[C@@H](OC(N)=O)C(C)=CC(C)[C@H]1O` (stereo not given in full) the EC50 (Plasmodium falciparum [1]) was > 1250 nM, the EC50 (Plasmodium falciparum [2]) was 26.7 nM and the CC50 [3] was > 10000 nM.

With `O=C(CCn1c(=S)oc2ccccc21)N1CCN(c2ccccc2)CC1` the EC50 (Plasmodium falciparum [1]) was > 1250 nM, the EC50 (Plasmodium falciparum [2]) was 26.7 nM and the CC50 [3] was > 10000 nM.

In the case of `CCCCN(CCCC)CC(O)c1cc(-c2ccc(Cl)cc2)nc2cc(Cl)ccc12` (stereo not given), the EC50 (Plasmodium falciparum [1]) is reported as 189 nM, the EC50 (Plasmodium falciparum [2]) is reported as 32.6 nM and the CC50 [3] is reported as > 12400 nM.

For `COc1cc(OC)cc(C(=O)NCc2n[nH]c(=S)n2-c2cccc(C(F)(F)F)c2)c1`, the EC50 (Plasmodium falciparum [1]) was 258 nM, the EC50 (Plasmodium falciparum [2]) was 261 nM and the CC50 [3] was > 100000 nM.

With `Cc1cc(C)c2c(c1)OC(N)(C(Cl)(Cl)Cl)CC2=O` (stereo not given) the EC50 (Plasmodium falciparum [1]) was 435 nM, the EC50 (Plasmodium falciparum [2]) was 260 nM and the CC50 [3] was > 100000 nM.

In the case of `O=C(Nc1ccccc1)c1ccccc1OCC(O)Cn1c2ccccc2c2ccccc21` (stereo not given), the EC50 (Plasmodium falciparum [1]) is reported as 282 nM, the EC50 (Plasmodium falciparum [2]) is reported as 267 nM and the CC50 [3] is reported as > 100000 nM.

With `CCCCNCC(O)(c1ccc(Cl)cc1)c1ccc(Cl)cc1` the EC50 (Plasmodium falciparum [1]) was 720 nM, the EC50 (Plasmodium falciparum [2]) was 99.7 nM and the CC50 [3] was 38500 nM.

For `COc1ccccc1NC(=O)N(CCC(C)C)C(C)c1nc2ccccc2c(=O)n1-c1ccccc1Cl` (stereo not given), the EC50 (Plasmodium falciparum [1]) was 817 nM, the EC50 (Plasmodium falciparum [2]) was < 25.8 nM and the CC50 [3] was > 10000 nM.

In the case of `CSC(Cl)=C(NC(C)=O)[P+](c1ccccc1)(c1ccccc1)c1ccccc1`, the EC50 (Plasmodium falciparum [1]) is reported as 126 nM, the EC50 (Plasmodium falciparum [2]) is reported as 257 nM and the CC50 [3] is reported as > 100000 nM.

Compound `CCCN1CCC(NC(c2ccccc2)c2ccc(Cl)cc2)CC1` (stereo not given) has an EC50 (Plasmodium falciparum [1]) of 753 nM, an EC50 (Plasmodium falciparum [2]) of 51.9 nM and a CC50 [3] of 20200 nM.

With `CC1CCCCN1CCCNc1ncc(C(=O)NCC2CCCO2)c(NCCc2ccccc2)n1` (stereo not given) the EC50 (Plasmodium falciparum [1]) was 918 nM, the EC50 (Plasmodium falciparum [2]) was 26.7 nM and the CC50 [3] was > 10000 nM.

With `CC(C)CNC(=O)c1cnc(NCCCN)nc1NC1CCCC1` the EC50 (Plasmodium falciparum [1]) was 635 nM, the EC50 (Plasmodium falciparum [2]) was 26.7 nM and the CC50 [3] was > 10000 nM.

For `C=CCNC(=O)c1ccc2c(c1)N=C(CC(C)c1ccccc1)N(CCCN1CCCC1=O)C2` (stereo not given), the EC50 (Plasmodium falciparum [1]) was > 1250 nM, the EC50 (Plasmodium falciparum [2]) was 26.7 nM and the CC50 [3] was > 10000 nM.

With `CCCCCc1nnc(NC(=O)c2ccc(-c3ccc(OC)cc3)cc2)s1` the EC50 (Plasmodium falciparum [1]) was 457 nM, the EC50 (Plasmodium falciparum [2]) was 26.7 nM and the CC50 [3] was > 10000 nM.

`O=C1Nc2ccc(Br)cc2C12NCCc1c2[nH]c2ccccc12` (stereo not given) gave an EC50 (Plasmodium falciparum [1]) of 198 nM, an EC50 (Plasmodium falciparum [2]) of 111 nM and a CC50 [3] of 42200 nM.

In the case of `COc1c2occc2c(OC)c2c(=O)cc(C(Cl)(Cl)Cl)oc12`, the EC50 (Plasmodium falciparum [1]) is reported as 646 nM, the EC50 (Plasmodium falciparum [2]) is reported as 254 nM and the CC50 [3] is reported as > 100000 nM.

In the case of `CCOC(=O)c1ccc(NCc2c(C)[nH]c3ccccc3c2=O)cc1`, the EC50 (Plasmodium falciparum [1]) is reported as 342 nM, the EC50 (Plasmodium falciparum [2]) is reported as 254 nM and the CC50 [3] is reported as > 100000 nM.

In the case of `Cc1ccc2c(c1)-c1c(ssc1=S)C(C)(C)N2C(=O)c1ccco1`, the EC50 (Plasmodium falciparum [1]) is reported as 276 nM, the EC50 (Plasmodium falciparum [2]) is reported as 254 nM and the CC50 [3] is reported as > 100000 nM.

With `CCN(CC)C(=O)c1cn(C2CCN(Cc3ccco3)CC2)nn1` the EC50 (Plasmodium falciparum [1]) was > 1250 nM, the EC50 (Plasmodium falciparum [2]) was 26.7 nM and the CC50 [3] was > 10000 nM.

In the case of `COc1ccc(-c2nc3ccccc3n2C2CCN(Cc3ccc(C)o3)CC2)cc1OC`, the EC50 (Plasmodium falciparum [1]) is reported as > 1250 nM, the EC50 (Plasmodium falciparum [2]) is reported as 26.7 nM and the CC50 [3] is reported as > 10000 nM.

With `CC(C)CC1=Nc2cc(C(=O)NCc3ccccc3)ccc2CN1Cc1cccnc1` the EC50 (Plasmodium falciparum [1]) was > 1250 nM, the EC50 (Plasmodium falciparum [2]) was 26.7 nM and the CC50 [3] was > 10000 nM.

For `CCOc1cccc(C2=Nc3cc(C(=O)NC(C)C)ccc3CN2CC2CCCCC2)c1`, the EC50 (Plasmodium falciparum [1]) was > 1250 nM, the EC50 (Plasmodium falciparum [2]) was 26.7 nM and the CC50 [3] was > 10000 nM.

With `Cn1c(=NC(=O)c2ccc(S(=O)(=O)N3CCCCC3)cc2)sc2cc(Cl)ccc21` the EC50 (Plasmodium falciparum [1]) was > 1250 nM, the EC50 (Plasmodium falciparum [2]) was 26.7 nM and the CC50 [3] was > 10000 nM.

For `CCCCCCN(C(=O)CCc1ccccc1)C(CC)c1nc2ccccc2c(=O)n1-c1ccc(Cl)cc1` (stereo not given), the EC50 (Plasmodium falciparum [1]) was 1160 nM, the EC50 (Plasmodium falciparum [2]) was 26.7 nM and the CC50 [3] was > 10000 nM.

In the case of `CCOc1ccc(C=C(C#N)c2nc3ccccc3[nH]2)cc1OC`, the EC50 (Plasmodium falciparum [1]) is reported as 516 nM, the EC50 (Plasmodium falciparum [2]) is reported as 263 nM and the CC50 [3] is reported as > 100000 nM.

`O=C1C(NC2CCCCC2)=C(N2CCOCC2)C(=O)c2ccccc21` showed an EC50 (Plasmodium falciparum [1]) of 139 nM, an EC50 (Plasmodium falciparum [2]) of 116 nM and a CC50 [3] of 46100 nM.
